# pIC50: −log10 of the molar value.
# Experiments:
# OCI-LY10 cells = assay: CellTiter-Glo Luminescent Cell Viability Assay; type: cell-based; conditions: Homo sapiens, 96 h, incubated 4 days, read-out: OCI-LY10 CTG IC50
# Protocol: Compound-mediated viability effect on OCI-LY10 was quantitatively determined using the CellTiter-Glo® Luminescent Cell Viability Assay kit from Promega (Catalog number G7570) following manufacturer's recommended procedures. Briefly, OCI-LY10 cells were seeded into 384 well plates (Grenier Bio-One, Catalog number 781080) with a density of 10,000 cells per well. Compounds were then added to the assay plate with final top concentration of 10 μM and 1:3 dilution series with total of 9 doses. The final DMSO concentration was normalized to 0.2%. The assay plates were incubated at 37° C. for 4 days under 5% CO2. Then the assay plate was equilibrated at room temperature for 10 minutes. To determine cell viability, 30 μL CellTiter Glo reagent was added to each well and the assay plate was centrifuged at 1000 rpm for 30 second, incubated at room temperature for 10 min, and analyzed by detecting the luminescence using a multimode plate reader (EnVision 2105, PerkinElmer). The data was then analyzed by software Prism 7.0 from GraphPad and the dose response curves were fit using a three-parameter logistic equation to calculate IC50.
# The letter codes for OCI-LY10 CTG IC50 include: A (<1 μM), B (1-10 μM), C (>10 μM).
# IRAK4 = target: T1, IRAK4 (Homo sapiens, UniProt Q9NWZ3); assay: OCI-LY10 IRAK MSD assay DC50 (IRAK4 degradation); type: cell-based; conditions: OCI-Ly10 cells, incubated for 4 hr, concentration of compound required to degrade 50% of protein
# T1 construct: endogenous in cells; host or cells: OCI-Ly10
# T1 sequence (Q9NWZ3 1-460): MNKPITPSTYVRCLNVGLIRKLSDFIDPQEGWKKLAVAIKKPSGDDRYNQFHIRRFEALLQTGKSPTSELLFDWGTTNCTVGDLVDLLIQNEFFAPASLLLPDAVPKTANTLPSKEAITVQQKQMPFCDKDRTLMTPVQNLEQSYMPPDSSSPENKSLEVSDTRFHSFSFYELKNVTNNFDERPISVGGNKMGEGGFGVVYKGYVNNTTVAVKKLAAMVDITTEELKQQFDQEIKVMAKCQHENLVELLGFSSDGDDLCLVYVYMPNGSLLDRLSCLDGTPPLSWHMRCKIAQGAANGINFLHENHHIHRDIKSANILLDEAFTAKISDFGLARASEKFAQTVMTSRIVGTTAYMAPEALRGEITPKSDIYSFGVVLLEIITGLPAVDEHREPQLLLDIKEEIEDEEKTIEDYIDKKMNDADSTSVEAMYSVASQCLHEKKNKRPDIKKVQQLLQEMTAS
# Protocol: A MSD assay is run to determine the concentration of compound required to degrade 50% of protein (DC50).
# • Compounds were reconstituted to 10 mM in stock solutions. The stock solutions were diluted to 5 mM and 45 μL of each dilution was transferred to a 384 pp-plate. A 3 fold, 8-point serial dilution was performed by transferring 15 μL of compound into 30 μL DMSO using Janus. • 20 nL of each compound were added into each well of a 96-well plate (Corning3799). • OCI-Ly10 cells were seeded into the 96-well plate at 3.0*10e^5 cells/100 μL/well. • The cell plate was shaken at 720 rpm for 5 min and incubated for 4 hr. • 100 μL of cells were transferred into the 96-PCR plate and spun down at high speed for 5 mins. • The supernatant was discarded and 100 μL of RIPA lysis buffer with proteinase inhibitors was added per well. The plate was then sealed and shaken at 600 rpm and 4° C. for about 20 min. • The plate was then spun down at high speed (about 3200 g) for 30 min and then frozen in a −80° C. fridge. • A bare MSD plate (L15XA-3) was coated with 2 μg/mL of capture antibody (mouse Anti-IRAK4 antibody [2H9], ab119942) in PBS to 40 μL/well and incubated overnight at 4° C.
# • The MSD coated plate was washed 3× (150 μL/well) with 1×TBST (CST #9997S). • The MSD plate was then blocked with 150 μL of blocking buffer [3% Blocker A (MSD, R93BA-4) in TBST]/well and shaken for 1 hr at RT and 600 rpm. • The MSD plate was washed 3× (150 μL/well) with 1×TBST. The sample RIPA lysates were then added to the MSD plate (50 μL/well) and shaken for 1 hr at RT and 600 rpm. • The MSD plate was washed 3× (150 μL/well) with 1×TBST and the primary detection antibody (Rabbit Anti-IRAK4 antibody [Y279], ab32511) was added to a final concentration of 1 μg/ml with 25 μL/well. The plate was then shaken for 1 hr at RT and 600 rpm. • The MSD plate was washed 3× (150 μL/well) with 1×TBST and the secondary detection antibody, SULFO-TAG anti-species antibody (Anti Rabbit Antibody (R32AB-5) MSD, R32AB-1) was added to a volume of 25 μL/well at a final concentration of 1 μg/ml. The plate was then shaken for 1 hr at RT and 600 rpm. • The MSD plate was then washed 3× (150 μL/well) with 1×TBST. • 1×MSD reading buffer was then added (150 μL/well) and the plate […].
# (MSD, R92TC-2) • The MSD instrument was then read.
# The remaining activity was calculated following the formula below:
# • The DC50 was calculated by fitting the Curve using Xlfit (v5.3.1.3), equation 201: […]
# The letter codes for IRAK4 DC50 indicate the concentration of compound required to degrade 50% of protein: A (<0.01 μM), B (0.01-0.1 μM), C (>0.1-0.2 μM), D (>0.2 μM).
pIC50 (OCI-LY10 cells),DC50 (IRAK4),SMILES
> 6.00,< 10 nM,COc1cc2nn([C@H]3CC[C@H](CN(C)C4CCN(c5cccn6c(N7CCC(=O)NC7=O)cnc56)CC4)CC3)cc2cc1NC(=O)c1cccc(C(F)(F)F)n1 [I-25]
5.00 to 6.00,,CC(C)(O)c1cc2nn([C@H]3CC[C@H](CN4CCC(c5ccc6c(N7CCC(=O)NC7=O)cncc6c5)CC4)CC3)cc2cc1NC(=O)c1cccc(C(F)(F)F)n1 [I-6]
5.00 to 6.00,< 10 nM,O=C1CCN(c2cnc3cc(C#CCOC4CCN(C[C@H]5CC[C@H](n6cc(NC(=O)c7cnn8ccc(N9C[C@H]%10C[C@@H]9CO%10)nc78)c(C(F)F)n6)CC5)CC4)ccn23)C(=O)N1 [I-3]
5.00 to 6.00,< 10 nM,O=C1CCN(c2cnc3c(C#CCOC4CCN(C[C@H]5CC[C@H](n6cc(NC(=O)c7cnn8ccc(N9C[C@H]%10C[C@@H]9CO%10)nc78)c(C(F)F)n6)CC5)CC4)cccn23)C(=O)N1 [I-24]
5.00 to 6.00,< 10 nM,CC(C)(O)c1cc2nn([C@H]3CC[C@H](CN4CCC(c5cccn6c(N7CCC(=O)NC7=O)cnc56)CC4)CC3)cc2cc1NC(=O)c1cccc(C(F)(F)F)n1 [I-23]
< 5.00,,CN(C[C@H]1CC[C@H](n2cc3cc(NC(=O)c4cccc(C(F)(F)F)n4)c(C(C)(C)O)cc3n2)CC1)C1CCN(c2cccc3c(N4CCC(=O)NC4=O)cncc23)CC1 [I-7]
> 6.00,< 10 nM,COc1cc2nn([C@H]3CC[C@H](CN(C)C4CCN(c5ccn6c(N7CCC(=O)NC7=O)cnc6c5)CC4)CC3)cc2cc1NC(=O)c1cccc(C(F)(F)F)n1 [I-31]
> 6.00,10 to 100 nM,COc1cc2nn([C@H]3CC[C@H](CN4CCC(c5cccn6c(N7CCC(=O)NC7=O)cnc56)CC4)CC3)cc2cc1NC(=O)c1cccc(C(F)(F)F)n1 [I-26]
< 5.00,10 to 100 nM,CC(C)(O)c1cc2nn([C@H]3CC[C@H](CNCCOCCOCC#Cc4ccn5c(N6CCC(=O)NC6=O)cnc5c4)CC3)cc2cc1NC(=O)c1cccc(C(F)(F)F)n1 [I-34]
> 6.00,,COc1cc2nn([C@H]3CC[C@H](CN4CCC(c5ccc6c(N7CCC(=O)NC7=O)cncc6c5)CC4)CC3)cc2cc1NC(=O)c1cccc(C(F)(F)F)n1 [I-17]
5.00 to 6.00,> 200 nM,O=C1CCN(c2cncc3cc(C#CCOC4CCN(C[C@H]5CC[C@H](n6cc(NC(=O)c7cnn8ccc(N9C[C@H]%10C[C@@H]9CO%10)nc78)c(C(F)F)n6)CC5)CC4)ccc23)C(=O)N1 [I-16]
5.00 to 6.00,< 10 nM,CN(C[C@H]1CC[C@H](n2cc3cc(NC(=O)c4cccc(C(F)(F)F)n4)c(C(C)(C)O)cc3n2)CC1)C1CCN(c2cccn3c(N4CCC(=O)NC4=O)cnc23)CC1 [I-4]
5.00 to 6.00,< 10 nM,O=C1CCN(c2cncc3c(C#CCOC4CCN(C[C@H]5CC[C@H](n6cc(NC(=O)c7cnn8ccc(N9C[C@H]%10C[C@@H]9CO%10)nc78)c(C(F)F)n6)CC5)CC4)cccc23)C(=O)N1 [I-9]
5.00 to 6.00,< 10 nM,CC(C)(O)c1cc2nn([C@H]3CC[C@H](CC4CCN(c5ccn6c(N7CCC(=O)NC7=O)cnc6c5)CC4)CC3)cc2cc1NC(=O)c1cccc(C(F)(F)F)n1 [I-2]
5.00 to 6.00,< 10 nM,CN(C[C@H]1CC[C@H](n2cc3cc(NC(=O)c4cccc(C(F)(F)F)n4)c(C(C)(C)O)cc3n2)CC1)C1CCN(c2ccn3c(N4CCC(=O)NC4=O)cnc3c2)CC1 [I-1]
> 6.00,> 200 nM,O=C1CCN(c2cnc3cc(C4CCN(C[C@H]5CC[C@H](n6cc7cc(NC(=O)c8cccc(C(F)(F)F)n8)ccc7n6)CC5)CC4)ccn23)C(=O)N1 [I-32]
5.00 to 6.00,,CN(C[C@H]1CC[C@H](n2cc3cc(NC(=O)c4cccc(C(F)(F)F)n4)c(C(C)(C)O)cc3n2)CC1)C1CCN(c2ccc3c(N4CCC(=O)NC4=O)cncc3c2)CC1 [I-5]
,< 10 nM,N#Cc1cc2nn([C@H]3CC[C@H](CN4CCC(c5ccn6c(N7CCC(=O)NC7=O)cnc6c5)CC4)CC3)cc2cc1NC(=O)c1cccc(C(F)(F)F)n1 [I-66]
,< 10 nM,C[C@@H]1CN(C[C@H]2CC[C@H](n3cc(NC(=O)c4cnn5ccc(N6C[C@H]7C[C@@H]6CO7)nc45)c(C(F)F)n3)CC2)CC[C@H]1OCC#Cc1cccn2c(N3CCC(=O)NC3=O)cnc12 [I-62]
,> 200 nM,N#Cc1cnc2c(C(=O)Nc3ccc4nn([C@H]5CC[C@H](CN6CCC(c7ccn8c(N9CCC(=O)NC9=O)cnc8c7)CC6)CC5)cc4c3)cnn2c1 [I-72]
,10 to 100 nM,COc1cc2nn([C@H]3C[C@H](CN4CCC(c5cccc6c(N7CCC(=O)NC7=O)cncc56)CC4)C3)cc2cc1NC(=O)c1cccc(C(F)(F)F)n1 [I-40]
